Consider two molecules from patent US12043630B2, “Polymorphic form of TG02 for treating cancer” (Cothera Bioscience, Inc., priority 2017, dated 2024).

Series [1] is described as follows: Polymorphic form conversion over time. It counts as physicochemical. The protocol:
Preparation: A solution containing TG02·HCl (77.1 g), EtOH (2340 mL) and H2O (185 mL) was heated at reflux for 0.5 h. The mixture was cooled to […] and stirred for 2 h. The mixture was filtered, and the filter cake was washed with EtOH and dried to give TG02 Form VIII (HCl).

A further series deals with JAK2 (Homo sapiens, UniProt O60674). To be noted: cited from earlier work.
The next series deals with tumor cell lines. The conditions noted are these: cited from earlier work.
In another series the target is CDK5 (Homo sapiens, UniProt Q00535). The conditions noted are these: cited from earlier work.
A further series concerns the target CDK9 (Homo sapiens, UniProt P50750). The conditions noted are these: cited from earlier work.
The target in a further series is T1, FLT3 (Homo sapiens, UniProt P36888).
T1 sequence (P36888 27-993): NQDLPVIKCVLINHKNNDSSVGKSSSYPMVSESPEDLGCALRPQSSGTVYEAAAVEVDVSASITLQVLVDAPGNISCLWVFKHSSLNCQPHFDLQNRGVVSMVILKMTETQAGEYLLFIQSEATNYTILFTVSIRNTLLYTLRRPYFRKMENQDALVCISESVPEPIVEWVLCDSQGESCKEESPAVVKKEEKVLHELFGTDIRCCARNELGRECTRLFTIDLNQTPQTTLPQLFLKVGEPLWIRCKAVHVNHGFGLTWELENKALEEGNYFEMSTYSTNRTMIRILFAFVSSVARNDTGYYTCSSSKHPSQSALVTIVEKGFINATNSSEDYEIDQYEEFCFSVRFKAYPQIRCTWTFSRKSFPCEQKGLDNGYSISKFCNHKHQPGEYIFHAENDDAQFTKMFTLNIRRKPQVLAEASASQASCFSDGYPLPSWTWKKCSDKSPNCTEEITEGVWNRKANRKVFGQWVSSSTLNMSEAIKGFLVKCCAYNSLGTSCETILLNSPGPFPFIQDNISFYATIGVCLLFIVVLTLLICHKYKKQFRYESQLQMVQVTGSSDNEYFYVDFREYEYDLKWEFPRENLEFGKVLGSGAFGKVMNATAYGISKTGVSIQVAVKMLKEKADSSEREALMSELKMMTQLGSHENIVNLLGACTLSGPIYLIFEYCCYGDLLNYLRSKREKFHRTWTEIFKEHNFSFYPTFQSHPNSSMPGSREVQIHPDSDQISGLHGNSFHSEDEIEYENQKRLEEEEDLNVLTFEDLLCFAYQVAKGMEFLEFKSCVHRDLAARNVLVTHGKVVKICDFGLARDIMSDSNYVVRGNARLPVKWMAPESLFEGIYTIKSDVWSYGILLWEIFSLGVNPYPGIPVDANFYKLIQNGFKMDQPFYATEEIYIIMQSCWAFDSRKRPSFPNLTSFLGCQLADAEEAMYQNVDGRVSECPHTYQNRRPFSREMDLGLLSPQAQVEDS
The conditions noted are these: cited from earlier work.

Series [2] has as its system progenitor cells derived from acute myeloid leukemia (AML) and polycythemia vera patients. The conditions noted are these: cited from earlier work.
Another series deals with CDK2 (Homo sapiens, UniProt P24941). The conditions noted are these: cited from earlier work.
For a further series, the target named is CDK1 (Homo sapiens, UniProt P06493). To be noted: cited from earlier work.
Series [3] relates to signaling pathways downstream of CDKs, JAK2 and FLT3 in cancer cells. To be noted: cited from earlier work.
The target of the next series is CDK7 (Homo sapiens, UniProt P50613). To be noted: cited from earlier work.

Structures can show the parent of a compound that is named as a salt.

Sequence of CDK7 (P50613 whole entry): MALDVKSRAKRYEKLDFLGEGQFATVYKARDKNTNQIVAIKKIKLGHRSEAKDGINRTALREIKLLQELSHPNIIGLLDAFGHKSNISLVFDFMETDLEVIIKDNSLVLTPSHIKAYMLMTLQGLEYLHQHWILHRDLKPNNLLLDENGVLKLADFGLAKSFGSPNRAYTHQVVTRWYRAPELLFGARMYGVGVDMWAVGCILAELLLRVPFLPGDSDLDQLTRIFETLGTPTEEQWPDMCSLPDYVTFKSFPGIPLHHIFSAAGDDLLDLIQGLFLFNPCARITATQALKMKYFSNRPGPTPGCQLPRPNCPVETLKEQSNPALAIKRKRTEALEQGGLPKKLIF
Sequence of CDK7 (P51946 whole entry partner): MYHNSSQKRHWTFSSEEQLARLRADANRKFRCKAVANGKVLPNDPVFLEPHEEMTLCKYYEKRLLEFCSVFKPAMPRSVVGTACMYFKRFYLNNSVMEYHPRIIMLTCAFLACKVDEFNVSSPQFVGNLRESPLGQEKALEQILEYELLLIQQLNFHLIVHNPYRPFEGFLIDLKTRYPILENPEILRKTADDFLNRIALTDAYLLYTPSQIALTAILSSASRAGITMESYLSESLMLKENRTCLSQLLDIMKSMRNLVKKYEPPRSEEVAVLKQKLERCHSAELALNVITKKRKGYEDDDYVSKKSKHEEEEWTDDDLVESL
Sequence of CDK7 (P51948 whole entry partner): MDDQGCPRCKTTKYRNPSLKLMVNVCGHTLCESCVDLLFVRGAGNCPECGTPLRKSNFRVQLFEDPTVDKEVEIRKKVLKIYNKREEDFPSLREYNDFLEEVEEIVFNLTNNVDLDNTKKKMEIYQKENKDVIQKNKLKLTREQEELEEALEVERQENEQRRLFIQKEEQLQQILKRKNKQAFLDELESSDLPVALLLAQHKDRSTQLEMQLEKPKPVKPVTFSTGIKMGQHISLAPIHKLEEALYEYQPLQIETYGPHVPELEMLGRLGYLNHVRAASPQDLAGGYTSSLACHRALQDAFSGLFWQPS
Sequence of JAK2 (O60674 whole entry): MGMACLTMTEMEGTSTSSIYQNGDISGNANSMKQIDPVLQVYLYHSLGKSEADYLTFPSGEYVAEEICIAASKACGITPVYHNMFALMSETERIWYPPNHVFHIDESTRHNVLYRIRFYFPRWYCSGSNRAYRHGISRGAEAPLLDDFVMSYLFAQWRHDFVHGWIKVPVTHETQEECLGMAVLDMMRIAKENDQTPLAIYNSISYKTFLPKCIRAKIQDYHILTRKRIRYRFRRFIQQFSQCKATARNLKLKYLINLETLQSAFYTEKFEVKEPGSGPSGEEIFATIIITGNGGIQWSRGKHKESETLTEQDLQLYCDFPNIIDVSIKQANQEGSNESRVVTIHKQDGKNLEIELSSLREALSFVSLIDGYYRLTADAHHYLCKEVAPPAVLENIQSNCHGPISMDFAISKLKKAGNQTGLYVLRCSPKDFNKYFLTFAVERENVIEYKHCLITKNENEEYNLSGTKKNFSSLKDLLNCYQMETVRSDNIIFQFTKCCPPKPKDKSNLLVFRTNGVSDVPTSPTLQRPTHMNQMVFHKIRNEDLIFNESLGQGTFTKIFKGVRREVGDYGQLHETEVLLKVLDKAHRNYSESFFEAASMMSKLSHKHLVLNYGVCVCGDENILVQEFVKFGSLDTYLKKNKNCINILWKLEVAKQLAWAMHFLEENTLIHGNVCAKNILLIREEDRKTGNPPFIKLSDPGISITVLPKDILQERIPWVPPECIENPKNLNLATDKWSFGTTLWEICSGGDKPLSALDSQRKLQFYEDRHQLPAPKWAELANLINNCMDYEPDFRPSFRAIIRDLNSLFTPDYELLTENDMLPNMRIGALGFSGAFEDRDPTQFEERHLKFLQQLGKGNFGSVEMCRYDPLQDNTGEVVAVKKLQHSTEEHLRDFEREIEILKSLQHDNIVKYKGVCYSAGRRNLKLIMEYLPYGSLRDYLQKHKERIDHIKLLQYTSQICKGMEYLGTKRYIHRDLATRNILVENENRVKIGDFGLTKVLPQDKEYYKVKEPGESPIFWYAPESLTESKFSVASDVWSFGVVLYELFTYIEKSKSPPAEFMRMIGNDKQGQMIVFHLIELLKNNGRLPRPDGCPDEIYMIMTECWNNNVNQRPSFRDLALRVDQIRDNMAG
Sequence of CDK9 (P50750 whole entry): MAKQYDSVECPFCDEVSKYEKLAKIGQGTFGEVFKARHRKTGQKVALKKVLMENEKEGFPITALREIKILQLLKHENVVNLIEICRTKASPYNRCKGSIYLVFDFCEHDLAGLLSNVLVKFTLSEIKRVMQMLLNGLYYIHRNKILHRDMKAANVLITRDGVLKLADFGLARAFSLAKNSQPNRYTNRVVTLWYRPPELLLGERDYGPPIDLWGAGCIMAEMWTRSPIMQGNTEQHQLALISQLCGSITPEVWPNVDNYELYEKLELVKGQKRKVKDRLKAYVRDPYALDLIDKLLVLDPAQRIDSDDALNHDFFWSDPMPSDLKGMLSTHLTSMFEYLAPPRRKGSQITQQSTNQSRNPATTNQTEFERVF
Sequence of CDK9 (O60563 whole entry partner): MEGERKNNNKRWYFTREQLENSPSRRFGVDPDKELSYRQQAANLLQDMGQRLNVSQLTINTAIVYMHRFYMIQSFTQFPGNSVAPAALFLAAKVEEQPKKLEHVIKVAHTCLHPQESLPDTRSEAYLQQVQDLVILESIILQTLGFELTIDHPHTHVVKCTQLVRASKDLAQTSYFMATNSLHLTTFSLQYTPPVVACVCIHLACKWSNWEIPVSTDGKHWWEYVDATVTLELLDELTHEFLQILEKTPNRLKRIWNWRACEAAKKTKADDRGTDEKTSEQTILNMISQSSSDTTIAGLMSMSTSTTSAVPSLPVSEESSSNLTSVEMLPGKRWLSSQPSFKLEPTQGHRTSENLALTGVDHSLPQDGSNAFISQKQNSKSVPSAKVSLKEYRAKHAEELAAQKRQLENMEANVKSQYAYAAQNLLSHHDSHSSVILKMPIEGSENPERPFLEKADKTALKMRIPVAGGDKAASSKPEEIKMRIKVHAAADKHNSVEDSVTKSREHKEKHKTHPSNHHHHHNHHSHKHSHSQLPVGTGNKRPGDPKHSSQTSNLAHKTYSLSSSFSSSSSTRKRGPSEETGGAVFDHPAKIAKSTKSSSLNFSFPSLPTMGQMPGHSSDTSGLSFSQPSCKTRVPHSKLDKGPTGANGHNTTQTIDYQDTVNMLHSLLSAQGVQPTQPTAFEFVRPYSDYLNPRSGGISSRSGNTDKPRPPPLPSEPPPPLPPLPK
Sequence of CDK1 (P06493 whole entry): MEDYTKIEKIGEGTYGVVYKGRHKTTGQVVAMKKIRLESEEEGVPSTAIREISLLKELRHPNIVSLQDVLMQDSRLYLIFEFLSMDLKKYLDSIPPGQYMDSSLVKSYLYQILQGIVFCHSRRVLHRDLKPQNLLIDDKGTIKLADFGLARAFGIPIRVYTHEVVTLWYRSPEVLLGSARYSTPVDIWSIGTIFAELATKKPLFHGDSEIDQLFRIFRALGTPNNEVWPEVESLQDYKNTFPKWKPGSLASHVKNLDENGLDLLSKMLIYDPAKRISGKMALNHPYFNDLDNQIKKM
Sequence of CDK1 (P14635 whole entry partner): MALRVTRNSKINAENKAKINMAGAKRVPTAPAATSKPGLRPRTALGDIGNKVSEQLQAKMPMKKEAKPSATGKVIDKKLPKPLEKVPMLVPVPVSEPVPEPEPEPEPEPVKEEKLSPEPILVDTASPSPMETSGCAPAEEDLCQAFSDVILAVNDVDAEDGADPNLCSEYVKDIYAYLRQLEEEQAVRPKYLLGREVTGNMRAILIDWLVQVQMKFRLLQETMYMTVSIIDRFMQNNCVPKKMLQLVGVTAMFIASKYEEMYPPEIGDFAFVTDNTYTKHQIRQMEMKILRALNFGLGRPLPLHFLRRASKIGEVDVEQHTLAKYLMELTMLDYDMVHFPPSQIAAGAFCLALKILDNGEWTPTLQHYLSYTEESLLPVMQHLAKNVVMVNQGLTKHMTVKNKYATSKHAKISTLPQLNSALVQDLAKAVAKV
Sequence of CDK5 (Q00535 whole entry): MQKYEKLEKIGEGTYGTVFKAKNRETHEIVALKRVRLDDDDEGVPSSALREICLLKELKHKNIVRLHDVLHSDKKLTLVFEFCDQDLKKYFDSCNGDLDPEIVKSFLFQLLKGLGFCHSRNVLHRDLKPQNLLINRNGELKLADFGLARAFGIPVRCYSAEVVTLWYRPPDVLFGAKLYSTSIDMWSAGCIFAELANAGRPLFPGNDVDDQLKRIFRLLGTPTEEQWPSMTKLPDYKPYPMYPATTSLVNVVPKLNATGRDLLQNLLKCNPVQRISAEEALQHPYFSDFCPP
Sequence of CDK5 (Q15078 whole entry partner): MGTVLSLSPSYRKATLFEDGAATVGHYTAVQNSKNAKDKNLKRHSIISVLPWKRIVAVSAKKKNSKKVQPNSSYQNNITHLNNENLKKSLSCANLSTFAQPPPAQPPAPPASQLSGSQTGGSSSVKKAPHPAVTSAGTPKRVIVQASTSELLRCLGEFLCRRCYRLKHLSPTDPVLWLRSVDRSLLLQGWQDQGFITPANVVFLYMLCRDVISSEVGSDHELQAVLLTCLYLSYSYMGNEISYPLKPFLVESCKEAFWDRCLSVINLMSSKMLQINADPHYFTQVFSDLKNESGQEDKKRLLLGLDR

As to `CN1C/C=C/CCOc2cccc(c2)-c2ccnc(n2)Nc2cccc(c2)C1` [TG02 Form VIII (HCl), (16E)-14-methyl-20-oxa-5,7,14,26-tetraazatetracyclo[19.3.1.1(2,6).1(8,12)]heptacosa-1(25),2(26),3,5,8(27),9,11,16,21,23-decaene], the “Form conversion over time” value in [1] is recorded as “gradually converted to TG02 Form VI (HCl) over time”.
Take `CN1C/C=C/CCOc2cccc(c2)-c2ccnc(n2)Nc2cccc(c2)C1` [TG02, (16E)-14-methyl-20-oxa-5,7,14,26-tetraazatetracyclo[19.3.1.1(2,6).1(8,12)]heptacosa-1(25),2(26),3,5,8(27),9,11,16,21,23-decaene]: the “Inhibition of JAK2” value at JAK2 is recorded as “inhibits”. Besides, in the series with tumor cell lines (broad range of tumor cell lines), the Anti-proliferative activity entry is “anti-proliferative”. Also, in the series on tumor cell lines (tumor cell lines), the “Cell cycle arrest and apoptosis” value was “inducing Gi cell cycle arrest and apoptosis”. For the same molecule, the “Inhibition of CDK5” value on CDK5 is listed as “inhibits”. Further, on CDK9, the “Inhibition of CDK9” value was “inhibits”. Further, the “Inhibition of FLT3” value at FLT3 is on record as “inhibits”. Further, the “Sensitivity of primary cultures to TG02” value in series [2] is on record as “very sensitive”. Further, on CDK2, the “Inhibition of CDK2” value is “inhibits”. For the same molecule, the “Inhibition of CDK1” value at CDK1 is listed as “inhibits”. In addition, the “Inhibition of signaling pathways downstream of CDKs, JAK2 and FLT3” value in series [3] is given as “dose-dependently inhibits”. Also, the “Inhibition of CDK7” value on CDK7 is “inhibits”.
